Results on 11 compounds are retold here after US12565504B2, “Spirocyclic O-glycoprotein-2-acetamido-2-deoxy-3-d-glucopyranosidase inhibitors” (BIOGEN MA INC., priority 2019, dated 2026).

Structures are written as SMILES. Read-outs that look alike come from different tables or passages of the source.

Data set [1] concerns the target Recombinant full length human OGA enzyme (Homo sapiens (Human), UniProt O60502). The data set can be described thus: OGA Enzyme Inhibition Biochemical Assay. The following applies: 1 nM OGA, 100 μM 4-MUGlcNAc, 90 minutes, pH 6.4. The method in brief: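 Full-length recombinant human OGA with fluorogenic 4-MUGlcNAc in McIlvaine buffer pH 6.4, 0.01% BSA; 90 min at room temperature, glycine pH 10 quench, fluorescence Ex 355/Em 460 nm. 10-point, 4-fold dilution from 20 μM; 4-parameter variable-slope fit.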

The next data set concerns the target OGA (S400 O-GLCNAC) (Homo sapiens (Human), UniProt O60502). The data set can be described thus: Cellular OGA-Tau MSD Assay. Type of data set: cell-based. The following applies: HEK-293T cells transfected with OGT and Tau-V5; Tau-S400-GlcNAc MSD readout. The method in brief:
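HEK-293T cells transiently co-expressing OGT and Tau-V5 were treated overnight at 37° C with compounds (top 1 uM, 3-fold, 10 points). Lysate Tau was captured on V5 antibody, and S400-GlcNAc was detected by MSD electrochemiluminescence. IC50 was derived from a 4-parameter fit of normalized % activity.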

For the next data set, the system named is P-gp (MDR1). The data set can be described thus: MDR1-MDCK Efflux Ratio Assay. Format: in vitro ADME. The following applies: dog, MDR1-MDCK cells, pH 7.4, read-out: MDR1-MDCK Efflux Ratio (B-A/A-B). The procedure:
MDR1-MDCK cell monolayers were grown to confluence on microporous polyester membranes in 96-well Corning insert plates. The permeability assay buffer was Hanks' Balanced Salt Solution containing 10 mM HEPES at pH of 7.4. Loperamide (1 μM) was used as a positive control P-gp substrate. Propranolol and Bestatin (1 μM) were used as high and low permeability comparators, respectively.
Test compounds or positive control P-gp substrate/permeability comprators were added to respective apical and basolateral chambers for bidirectional assessment of permeability. Receiver buffer (transport buffer supplemented with 1% bovine serum albumin) was added to respective receiver chambers. MDR1-MDCK cells were incubated with test compounds at 37° C. with 5% CO2 for 2 hr. Samples were collected from the donor chamber at both 0 and 120 minutes, and from the receiver chamber at 120 minutes. Test and control compound concentrations were determined using LC-MS/MS analysis. Each determination was performed in triplicate.

A short description of data set [2]: Rat Liver Microsome Stability Assay. As to conditions: rat liver microsomes 0.5 mg/mL, compound 1 μM; Qh 55 mL/minute/kg.
Description: (§1) Aliquots (40 uL) at 0, 5, 10, 15, 25 and 40 minutes post NADPH addition (or compound addition for reactions in absence of NADPH) were transferred into individual 96-well plate wells containing 40 ng/ml of 8-cyclopently-1,3-dipropylxanthine (CPDPX, internal standard) in 160 uL acetonitrile:methanol (1:1 v/v).
(§2) The LC/MS/MS system consisted of an ultra high throughput RapidFire® 300 system (Agilent Technologies, Santa Clara, CA) coupled to a Triple Quad 5500 mass spectrometer (ABSciex, Foster City, CA). Sample load and wash were performed on a RapidFire® C4 cartridge using 0.1% formic acid in water as mobile phase A and sample elution using 0.1% formic acid in acetonitrile:methanol (1:1 v/v) as mobile phase B.
(§3) CLint, app (apparent intrinsic clearance) was calculated using the following equation for microsome stability.
(§4) [formula] • where “a” represents 45 grams of liver/kg of body weight for rat. • CLint,app (apparent intrinsic clearance) was calculated using the following equation for hepatocyte stability: • CLhep (hepatic clearance) was calculated using the following equation for microsomes
(§5) [formula] • using 55 mL/minute/kg as Qh (hepatic blood flow) for rat.
The conditions of data set [3]: rat, microsomes, 1 μM, pH 7.4.
Description: as §1, §2, §3, §4, §5

Sequence of Recombinant full length human OGA enzyme (O60502 whole entry): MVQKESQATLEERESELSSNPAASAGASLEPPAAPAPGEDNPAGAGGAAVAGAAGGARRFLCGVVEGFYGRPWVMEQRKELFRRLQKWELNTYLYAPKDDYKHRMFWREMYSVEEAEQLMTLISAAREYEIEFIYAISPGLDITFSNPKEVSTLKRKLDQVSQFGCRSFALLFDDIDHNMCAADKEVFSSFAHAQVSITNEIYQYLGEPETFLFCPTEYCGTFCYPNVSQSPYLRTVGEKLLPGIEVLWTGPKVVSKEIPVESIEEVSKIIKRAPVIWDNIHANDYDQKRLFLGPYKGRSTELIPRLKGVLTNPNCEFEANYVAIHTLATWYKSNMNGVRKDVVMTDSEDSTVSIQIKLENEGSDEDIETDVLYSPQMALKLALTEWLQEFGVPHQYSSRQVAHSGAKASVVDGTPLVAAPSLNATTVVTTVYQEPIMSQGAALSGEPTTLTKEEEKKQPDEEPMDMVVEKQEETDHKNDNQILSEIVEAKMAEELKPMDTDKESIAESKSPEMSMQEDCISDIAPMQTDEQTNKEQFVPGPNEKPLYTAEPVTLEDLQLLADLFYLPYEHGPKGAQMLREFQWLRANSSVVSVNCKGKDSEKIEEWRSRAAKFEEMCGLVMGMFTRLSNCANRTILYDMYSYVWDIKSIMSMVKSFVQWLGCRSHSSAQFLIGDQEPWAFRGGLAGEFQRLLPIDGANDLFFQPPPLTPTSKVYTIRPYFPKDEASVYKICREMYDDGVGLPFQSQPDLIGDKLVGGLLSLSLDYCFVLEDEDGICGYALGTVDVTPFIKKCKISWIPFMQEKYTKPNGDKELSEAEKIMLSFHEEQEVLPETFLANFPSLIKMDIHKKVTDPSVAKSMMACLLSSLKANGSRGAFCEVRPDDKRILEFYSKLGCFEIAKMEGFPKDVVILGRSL
Sequence of OGA (S400 O-GLCNAC) (O60502 whole entry): as above

With `COc1nccc2c1COC21CCCN(Cc2sc(NC(C)=O)nc2F)C1` (stereo not drawn) [Example 81, N-(4-Fluoro-5-((4-methoxy-3H-spiro[furo[3,4-c]pyridine-1,3′-piperidin]-1′-yl)methyl)thiazol-2-yl)acetamide], the figures for the IC50 (in data set [1]; at OGA (S400 O-GLCNAC)) were 0.0011 µM and 0.0151 µM, respectively. In addition, the efflux ratio at 2 hr in the data set with P-gp (MDR1) came out at 2.5. For the same compound, the “RLM % Qh (%)” value in data set [2] was determined as 78%.
Take `CC(=O)Nc1nc(F)c(CN2C[C@@]3(Cc4cc(C5CC5)ncc4O3)C[C@@H]2C)s1` [Example 24, N-(5-(((2R,5′S)-5-Cyclopropyl-5′-methyl-3H-spiro[furo[2,3-c]pyridine-2,3′-pyrrolidin]-1′-yl)methyl)-4-fluorothiazol-2-yl)acetamide]: the values for the IC50 (in data set [1]; at OGA (S400 O-GLCNAC)) were 0.001 µM and 0.012 µM, respectively. Moreover, in the data set on P-gp (MDR1), the efflux ratio at 2 hr was 6.5. Also, the “RLM % Qh (%)” value in data set [2] is 75%.
In the same order, the values of `CC(=O)Nc1ncc(CN2C[C@@]3(Cc4cc(N5C[C@H](C)O[C@@H](C)C5)ncc4O3)C[C@@H]2C)s1` [Example 42, N-(5-(((2R,5′S)-5-((2S,6S)-2,6-Dimethylmorpholino)-5′-methyl-3H-spiro[furo[2,3-c]pyridine-2,3′-pyrrolidin]-1′-yl)methyl)thiazol-2-yl)acetamide] are 0.0019 µM, 0.014 µM, 25 and 66%.
Consider `CC(=O)Nc1ncc(CN2CCC3(Cc4ccccc4O3)C2)s1` (stereo not drawn) [Example 3, N-(5-((3H-Spiro[benzofuran-2,3′-pyrrolidin]-1′-yl)methyl)thiazol-2-yl)acetamide], for which the IC50 is 0.33 µM in data set [1] and 1 µM against OGA (S400 O-GLCNAC). Also, the efflux ratio at 2 hr in the data set on P-gp (MDR1) was determined as 1.7. The “RLM % Qh (%)” value in data set [2] amounted to 81%.
In the same order, the values of `CC(=O)Nc1ncc(CN2CCCC3(C2)OCc2ccncc23)s1` (stereo not drawn) [Example 74, N-(5-((1H-Spiro[furo[3,4-c]pyridine-3,3′-piperidin]-1′-yl)methyl)thiazol-2-yl)acetamide] are 0.013 µM, 0.0226 µM, 36.5 and 75%.
On to `CC(=O)Nc1nc(F)c(CN2CCCC3(COc4ccccc43)C2)s1` (stereo not drawn) [Example 54, N-(5-((2H-Spiro[benzofuran-3,3′-piperidin]-1′-yl)methyl)-4-fluorothiazol-2-yl)acetamide], for which the IC50 is 1.5 µM in data set [1] and above 1 µM at OGA (S400 O-GLCNAC). Also, in the data set on P-gp (MDR1), the efflux ratio at 2 hr was determined as 0.8. For the same compound, the “RLM % Qh (%)” value in data set [2] turned out to be 94%.
In the same order, the values of `CC(=O)Nc1ncc(CN2C[C@@]3(Cc4cc(N5CCC5)ncc4O3)C[C@@H]2C)s1` [Example 35, N-(5-(((2R,5′S)-5-(Azetidin-1-yl)-5′-methyl-3H-spiro[furo[2,3-c]pyridine-2,3′-pyrrolidin]-1′-yl)methyl)thiazol-2-yl)acetamide] are below 0.001 µM, 0.004 µM, 39.5 and 50%.
`CC(=O)Nc1nc(F)c(CN2CCCC3(C2)OCc2ccncc23)s1` (stereo not drawn) [Example 73, N-(5-((1H-Spiro[furo[3,4-c]pyridine-3,3′-piperidin]-1′-yl)methyl)-4-fluorothiazol-2-yl)acetamide]: the IC50 in data set [1] amounted to 0.0092 µM; at OGA (S400 O-GLCNAC) it was 0.0237 µM. Moreover, in the data set on P-gp (MDR1), the efflux ratio at 2 hr was determined as 21.6. Further, the “RLM % Qh (%)” value in data set [2] worked out at 78%.
For the compound `CC(=O)Nc1ncc(CN2CCC3(C2)OCc2ccccc23)s1` (stereo not drawn) [Example 57, N-(5-((3H-Spiro[isobenzofuran-1,3′-pyrrolidin]-1′-yl)methyl)thiazol-2-yl)acetamide], the 50% inhibitory concentration (IC50) came to 0.17 µM in data set [1] and 0.818 µM at OGA (S400 O-GLCNAC). Further, in the data set on P-gp (MDR1), the efflux ratio at 2 hr is 2.4. In addition, in data set [2], the “RLM % Qh (%)” value amounted to 88%.
Turning to `CC(=O)Nc1ncc(CN2CCCC3(C2)OCc2cnccc23)s1` (stereo not drawn) [Example 68, N-(5-((3H-Spiro[furo[3,4-c]pyridine-1,3′-piperidin]-1′-yl)methyl)thiazol-2-yl)acetamide], the IC50 amounted to 0.006 µM in data set [1] and 0.018 µM on OGA (S400 O-GLCNAC). Besides, the efflux ratio at 2 hr with P-gp (MDR1) turned out to be 10.7. In addition, in data set [2], the “RLM % Qh (%)” value came to 84%.
Turning to `CC(=O)Nc1nc(F)c(CN2CCC3(Cc4ncccc4O3)C2)s1` (stereo not drawn) [Example 91, N-(5-((3H-spiro[furo[3,2-b]pyridine-2,3′-pyrrolidin]-1′-yl)methyl)-4-fluorothiazol-2-yl)acetamide], in data set [1], the IC50 came out at 0.07 µM. Besides, the “RLM % Qh (%)” value in data set [3] is 45%.

What is called IC50 is the point on the concentration scale where inhibition reaches its midpoint.
